Source: PubChem BioAssay AID2060627 (Molecular Pharmacology Branch, DTP, NCI, 2025)

Test system: 156681-154-R-J1-PDC complex spheroid viability
Test: Anticancer human tumor 156681-154-R-J1-PDC patient-derived melanoma cell line growth inhibition [CLK]
Conditions: for IC50: curve of first compound; for viability, T/C: stronger effect = lower value
Procedure, shortened: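 Patient-derived tumor cells grown as complex spheroids with HUVEC endothelial cells and mesenchymal stem cells, treated with drug combinations. Concentrations descend in half-log steps from near clinical Cmax, or from 10 microM if Cmax unknown.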

[1] = second compound 0.0316 µM, first compound 0.0316 µM
[2] = second compound 0.0316 µM, first compound 0.1 µM
[3] = second compound 0.0316 µM, first compound 0.316 µM
[4] = second compound 0.0316 µM, first compound 1 µM
[5] = second compound 0.0316 µM, first compound 3.16 µM
[6] = second compound 0.0316 µM, first compound 10 µM
[7] = second compound 0.1 µM, first compound 0.0316 µM
[8] = second compound 0.1 µM, first compound 0.1 µM
[9] = second compound 0.1 µM, first compound 0.316 µM
[10] = second compound 0.1 µM, first compound 1 µM
[11] = second compound 0.1 µM, first compound 3.16 µM
[12] = second compound 0.1 µM, first compound 10 µM
[13] = second compound 0.316 µM, first compound 0.0316 µM
[14] = second compound 0.316 µM, first compound 0.1 µM
[15] = second compound 0.316 µM, first compound 0.316 µM
[16] = second compound 0.316 µM, first compound 1 µM
[17] = second compound 0.316 µM, first compound 3.16 µM
[18] = second compound 0.316 µM, first compound 10 µM
[19] = second compound 1 µM, first compound 0.0316 µM
[20] = second compound 1 µM, first compound 0.1 µM
[21] = second compound 1 µM, first compound 0.316 µM
[22] = second compound 1 µM, first compound 1 µM
[23] = second compound 1 µM, first compound 3.16 µM
[24] = second compound 1 µM, first compound 10 µM
[25] = second compound 3.16 µM, first compound 0.0316 µM
[26] = second compound 3.16 µM, first compound 0.1 µM
[27] = second compound 3.16 µM, first compound 0.316 µM
[28] = second compound 3.16 µM, first compound 1 µM
[29] = second compound 3.16 µM, first compound 3.16 µM
[30] = second compound 3.16 µM, first compound 10 µM
[31] = second compound 10 µM, first compound 0.0316 µM
[32] = second compound 10 µM, first compound 0.1 µM
[33] = second compound 10 µM, first compound 0.316 µM
[34] = second compound 10 µM, first compound 1 µM
[35] = second compound 10 µM, first compound 3.16 µM
[36] = second compound 10 µM, first compound 10 µM
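Further: spheroids exposed to the agents for seven days.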
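Wherever viability, T/C is given: 100% = DMSO vehicle control viability.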

Q: Which IC50 (second compound 0.0316 µM) does the source give for `CC1(C)CCC(CN2CCN(c3ccc(C(=O)NS(=O)(=O)c4ccc(NCC5CCOCC5)c([N+](=O)[O-])c4)c(Oc4cnc5[nH]ccc5c4)c3)CC2)=C(c2ccc(Cl)cc2)C1` + CN1CCN(c2cc(C(=O)Nc3cc4cc(-c5cnn(C)c5)ccc4cn3)ccn2)CC1 here?
A: 4990 nM

Q: What about the IC50 (second compound 0.1 µM) of the same molecule?
A: 4370 nM

Q: What about the IC50 (second compound 0.316 µM) of the same molecule?
A: < 31.6 nM

Q: What about the IC50 (second compound 1 µM) of the same molecule?
A: < 31.6 nM

Q: And the IC50 (second compound 3.16 µM)?
A: < 31.6 nM

Q: And the IC50 (second compound 10 µM)?
A: < 31.6 nM

Q: What about the viability, T/C [1] of the same molecule?
A: 99.7%

Q: What about the viability, T/C [2] of the same molecule?
A: 116%

Q: What about the viability, T/C [3] of the same molecule?
A: 90.8%

Q: What about the viability, T/C [4] of the same molecule?
A: 103%

Q: And the viability, T/C [5]?
A: 81.6%

Q: What about the viability, T/C [6] of the same molecule?
A: 1.68%

Q: What about the viability, T/C [7] of the same molecule?
A: 97.8%

Q: And the viability, T/C [8]?
A: 83.3%

Q: And the viability, T/C [9]?
A: 86%

Q: And the viability, T/C [10]?
A: 88.8%

Q: And the viability, T/C [11]?
A: 69.2%

Q: And the viability, T/C [12]?
A: 0.79%

Q: And the viability, T/C [13]?
A: 18.2%

Q: And the viability, T/C [14]?
A: 19.7%

Q: What about the viability, T/C [15] of the same molecule?
A: 24.4%

Q: And the viability, T/C [16]?
A: 17.9%

Q: What about the viability, T/C [17] of the same molecule?
A: 8.72%

Q: What about the viability, T/C [18] of the same molecule?
A: 0.28%

Q: And the viability, T/C [19]?
A: 0.22%

Q: And the viability, T/C [20]?
A: 0.91%

Q: And the viability, T/C [21]?
A: 0.19%

Q: What about the viability, T/C [22] of the same molecule?
A: 0.18%

Q: And the viability, T/C [23]?
A: 2.05%

Q: And the viability, T/C [24]?
A: 0.07%

Q: And the viability, T/C [25]?
A: 2.04%

Q: And the viability, T/C [26]?
A: 0.47%

Q: What about the viability, T/C [27] of the same molecule?
A: 0.27%

Q: And the viability, T/C [28]?
A: 0.09%

Q: What about the viability, T/C [29] of the same molecule?
A: 3.38%

Q: And the viability, T/C [30]?
A: 0.4%

Q: And the viability, T/C [31]?
A: 0.1%

Q: What about the viability, T/C [32] of the same molecule?
A: 3.06%

Q: And the viability, T/C [33]?
A: 2.9%

Q: What about the viability, T/C [34] of the same molecule?
A: 0.17%

Q: And the viability, T/C [35]?
A: 0.91%

Q: And the viability, T/C [36]?
A: 0.56%

Q: Which IC50 (second compound 0.0316 µM) does the source give for `NC(=O)C(=Cn1cnc(-c2cc(C(F)(F)F)cc(C(F)(F)F)c2)n1)c1cncnc1` + CN1CCN(c2cc(C(=O)Nc3cc4cc(-c5cnn(C)c5)ccc4cn3)ccn2)CC1 here?
A: 61 nM

Q: And the IC50 (second compound 0.1 µM)?
A: 31.3 nM

Q: What about the IC50 (second compound 0.316 µM) of the same molecule?
A: < 9.49 nM

Q: What about the IC50 (second compound 1 µM) of the same molecule?
A: < 9.49 nM

Q: And the IC50 (second compound 3.16 µM)?
A: < 9.49 nM

Q: And the IC50 (second compound 10 µM)?
A: < 9.49 nM

Q: And the viability, T/C (second compound 0.0316 µM, first compound 0.00949 µM)?
A: 93.5%

Q: What about the viability, T/C (second compound 0.0316 µM, first compound 0.03 µM) of the same molecule?
A: 63.4%

Q: And the viability, T/C (second compound 0.0316 µM, first compound 0.0949 µM)?
A: 45.5%

Q: And the viability, T/C (second compound 0.0316 µM, first compound 0.3 µM)?
A: 13.1%

Q: And the viability, T/C (second compound 0.0316 µM, first compound 0.949 µM)?
A: 4.9%

Q: What about the viability, T/C (second compound 0.0316 µM, first compound 3 µM) of the same molecule?
A: 3.07%

Q: What about the viability, T/C (second compound 0.1 µM, first compound 0.00949 µM) of the same molecule?
A: 64.3%

Q: What about the viability, T/C (second compound 0.1 µM, first compound 0.03 µM) of the same molecule?
A: 50.4%

Q: And the viability, T/C (second compound 0.1 µM, first compound 0.0949 µM)?
A: 26.6%

Q: And the viability, T/C (second compound 0.1 µM, first compound 0.3 µM)?
A: 6.93%

Q: What about the viability, T/C (second compound 0.1 µM, first compound 0.949 µM) of the same molecule?
A: 2.72%

Q: What about the viability, T/C (second compound 0.1 µM, first compound 3 µM) of the same molecule?
A: 1.03%

Q: What about the viability, T/C (second compound 0.316 µM, first compound 0.00949 µM) of the same molecule?
A: 10.8%

Q: And the viability, T/C (second compound 0.316 µM, first compound 0.03 µM)?
A: 8.6%

Q: What about the viability, T/C (second compound 0.316 µM, first compound 0.0949 µM) of the same molecule?
A: 1.88%

Q: What about the viability, T/C (second compound 0.316 µM, first compound 0.3 µM) of the same molecule?
A: 0.07%

Q: What about the viability, T/C (second compound 0.316 µM, first compound 0.949 µM) of the same molecule?
A: 1.67%

Q: What about the viability, T/C (second compound 0.316 µM, first compound 3 µM) of the same molecule?
A: 1.86%

Q: What about the viability, T/C (second compound 1 µM, first compound 0.00949 µM) of the same molecule?
A: 0.14%

Q: What about the viability, T/C (second compound 1 µM, first compound 0.03 µM) of the same molecule?
A: 0.33%

Q: What about the viability, T/C (second compound 1 µM, first compound 0.0949 µM) of the same molecule?
A: 0.11%

Q: And the viability, T/C (second compound 1 µM, first compound 0.3 µM)?
A: 0.39%

Q: What about the viability, T/C (second compound 1 µM, first compound 0.949 µM) of the same molecule?
A: 2.63%

Q: And the viability, T/C (second compound 1 µM, first compound 3 µM)?
A: 0.65%

Q: What about the viability, T/C (second compound 3.16 µM, first compound 0.00949 µM) of the same molecule?
A: 0.07%

Q: And the viability, T/C (second compound 3.16 µM, first compound 0.03 µM)?
A: 2.18%

Q: What about the viability, T/C (second compound 3.16 µM, first compound 0.0949 µM) of the same molecule?
A: 2.61%

Q: What about the viability, T/C (second compound 3.16 µM, first compound 0.3 µM) of the same molecule?
A: 1.32%

Q: What about the viability, T/C (second compound 3.16 µM, first compound 0.949 µM) of the same molecule?
A: 1.52%

Q: What about the viability, T/C (second compound 3.16 µM, first compound 3 µM) of the same molecule?
A: 0.84%

Q: And the viability, T/C (second compound 10 µM, first compound 0.00949 µM)?
A: 0.07%

Q: And the viability, T/C (second compound 10 µM, first compound 0.03 µM)?
A: 1.56%

Q: What about the viability, T/C (second compound 10 µM, first compound 0.0949 µM) of the same molecule?
A: 1.25%

Q: And the viability, T/C (second compound 10 µM, first compound 0.3 µM)?
A: 2.65%

Q: And the viability, T/C (second compound 10 µM, first compound 0.949 µM)?
A: 2.11%

Q: What about the viability, T/C (second compound 10 µM, first compound 3 µM) of the same molecule?
A: 0.95%

Q: How did the IC50 (second compound 0.0316 µM) turn out when `Nc1ccccc1NC(=O)c1ccc(CNC(=O)OCc2cccnc2)cc1` + CN1CCN(c2cc(C(=O)Nc3cc4cc(-c5cnn(C)c5)ccc4cn3)ccn2)CC1 was run?
A: 563 nM

Q: And the IC50 (second compound 0.1 µM)?
A: 505 nM

Q: What about the IC50 (second compound 0.316 µM) of the same molecule?
A: < 31.6 nM

Q: And the IC50 (second compound 1 µM)?
A: < 31.6 nM

Q: What about the IC50 (second compound 3.16 µM) of the same molecule?
A: < 31.6 nM

Q: What about the IC50 (second compound 10 µM) of the same molecule?
A: < 31.6 nM

Q: And the viability, T/C [1]?
A: 104%

Q: And the viability, T/C [2]?
A: 86.9%

Q: And the viability, T/C [3]?
A: 69.7%

Q: What about the viability, T/C [4] of the same molecule?
A: 33.3%

Q: And the viability, T/C [5]?
A: 5.05%

Q: What about the viability, T/C [6] of the same molecule?
A: 0.29%

Q: And the viability, T/C [7]?
A: 95.2%

Q: What about the viability, T/C [8] of the same molecule?
A: 89.5%

Q: What about the viability, T/C [9] of the same molecule?
A: 65.2%

Q: What about the viability, T/C [10] of the same molecule?
A: 27.4%

Q: What about the viability, T/C [11] of the same molecule?
A: 7.52%

Q: What about the viability, T/C [12] of the same molecule?
A: 1.57%

Q: And the viability, T/C [13]?
A: 23.7%

Q: What about the viability, T/C [14] of the same molecule?
A: 20.4%

Q: And the viability, T/C [15]?
A: 19.8%

Q: And the viability, T/C [16]?
A: 14.6%

Q: What about the viability, T/C [17] of the same molecule?
A: 1.03%

Q: And the viability, T/C [18]?
A: 0.71%

Q: And the viability, T/C [19]?
A: 0.22%

Q: What about the viability, T/C [20] of the same molecule?
A: 1.38%

Q: And the viability, T/C [21]?
A: 0.48%

Q: What about the viability, T/C [22] of the same molecule?
A: 0.97%

Q: And the viability, T/C [23]?
A: 2.99%

Q: And the viability, T/C [24]?
A: 1.95%

Q: What about the viability, T/C [25] of the same molecule?
A: 0.06%

Q: What about the viability, T/C [26] of the same molecule?
A: 0.81%

Q: And the viability, T/C [27]?
A: 0.11%

Q: And the viability, T/C [28]?
A: 0.92%

Q: What about the viability, T/C [29] of the same molecule?
A: 1.15%

Q: What about the viability, T/C [30] of the same molecule?
A: 1.84%

Q: And the viability, T/C [31]?
A: 0.03%

Q: What about the viability, T/C [32] of the same molecule?
A: 0.96%

Q: And the viability, T/C [33]?
A: 0.58%

Q: And the viability, T/C [34]?
A: 0.15%

Q: What about the viability, T/C [35] of the same molecule?
A: 3.86%

Q: And the viability, T/C [36]?
A: 2.47%
